Each structure is given as a SMILES string.

In patent US10774082B2, “Quinazoline compound” (Astellas Pharma Inc., priority 2017, dated 2020) one finds IC50 data, which are given here for 18 compounds.

Experiment [1] has as its system ERK phosphorylation (Thr 202/Tyr 204) in NCI-H1373 cells. The experiment in a line: ERK phosphorylation inhibitory action in NCI-H1373 (Cell ELISA). Type of experiment: cell-based, Human. To be noted: Homo sapiens, NCI-H1373, 2 h, NCI-H1373 cells, cultured for 2 hours, 100% = 1 μM Trametinib; read-out: IC50 (ERK phosphorylation inhibition). On the procedure: Evaluation of ERK Phosphorylation Inhibitory Action with Respect to Human KRAS G12C Mutation Positive Non-Small Cell Lung Cancer Strain NCI-H1373
The ERK phosphorylation inhibitory action by the test compound was evaluated by measuring phosphorylation of 202th threonine (Thr 202) and 204th tyrosine (Tyr 204) of ERK on the downstream of the KRAS signal by Cell ELISA.
NCI-H1373 cells (ATCC, CRL-5866) were seeded in 384 well plates (Greiner bio-one) at 36 μL/well each so as to be 2×10^4 cell per well. Cell culture was performed under the conditions of temperature of 37° C. in the presence of 5% CO2 by using RPMI 1640 medium (Sigma-Aldrich Co. LLC) containing 10% fetal bovine serum (GE Life Sciences).
The next day, the test compounds (six points in a range of final concentration 1,000 nM to 0.3 nM), final concentration 1 μM of Trametinib (GlaxoSmithKline Inc.; MEK inhibitor) as a positive control, and DMSO which is a solvent of the test compound as a negative control were diluted 100-fold with fresh medium, 4 μL each was added to each well, and then cultured for 2 hours. Immediately after culturing, 30 μL of 30% glyoxal solution (Wako: 40% glyoxal diluted with Phosphate Buffered Saline (PBS; Wako)) was added to each well, and the cells were left to stand at room temperature for one hour to be fixed. Thereafter, the supernatant was removed by centrifuging the plate (110×g for 7 seconds, unless otherwise stated below under the same conditions), and 20 μL of PBS containing 0.1% Triton X-100 (Amersham Biosciences Corp.) was added to each well. After being left to stand at room temperature for 10 minutes, the supernatant was removed by centrifugation, and the same operation was repeated. Next, 20 μL of PBS containing 0.5% SDS (Invitrogen) was added to each well, and the mixture was left to stand at room temperature for 30 minutes, and then centrifuged to remove the supernatant. Subsequently, 20 μL of a blocking solution (ODYSSEY Blocking Buffer; LI-COR Biosciences) was added to each well, and left to stand at room temperature for one hour. The supernatant was removed by centrifugation, and 10 μL of a blocking solution prepared by diluting ERK (Thr 202/Tyr 204) of a phosphorylation antibody (Cell Signaling Technology, Inc.) as a primary antibody to be ½, 500 amount with respect to a stock solution was added to each well and was left to stand at 4° C. for overnight.
The next day, a reaction liquid is removed by centrifuging the plate, 20 μL of 0.05% Tween-20-containing PBS (Thermo Scientific; 20×PBS Tween-20 diluted 20-fold with ion exchanged water) was added to each well, and each well was washed by removing the supernatant by centrifugation. Washing was performed three times in total. After washing, 10 μL of a blocking solution prepared by diluting IRDye 800CW Goat anti-Rabbit IgG (LI-COR Biosciences) as a secondary antibody to be 1/1,000 amount with respect to a stock solution was added to each well and was left to stand at room temperature for one hour. The reaction liquid was removed by centrifuging the plate, and each well was washed three times with 0.05% Tween-20-containing PBS in the same manner as after primary antibody reaction. The centrifugation after the third wash was 171×g for 17 seconds. After removal of the cleaning solution, the plate was left to air dry at room temperature for three hours or more and the fluorescent signal at 800 nm was measured by Aerius (LI-COR Biosciences).
When a signal value at the time of adding DMSO was set as 0% inhibition, and a signal value at the time of adding 1 μM of Trametinib was set as 100% inhibition, a value of 50% inhibition (IC50) was calculated through Sigmoid-Emax model nonlinear regression analysis.

The target in experiment [2] is T1, KRAS G12C/SOS/c-Raf complex (Homo sapiens, UniProt P01116, G12C).
T1 construct: Biotinylated AviTag-KRAS G12C (amino acid region 1-185, GDP)
T1 sequence (P01116 1-185 isoform P01116-2 G12C, one chain of several): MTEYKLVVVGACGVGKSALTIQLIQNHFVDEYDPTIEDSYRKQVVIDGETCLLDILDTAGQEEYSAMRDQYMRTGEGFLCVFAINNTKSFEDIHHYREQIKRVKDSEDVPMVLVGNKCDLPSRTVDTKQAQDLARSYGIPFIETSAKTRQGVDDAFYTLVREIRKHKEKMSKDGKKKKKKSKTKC
The experiment in a line: KRAS G12C/SOS/c-Raf complex formation inhibitory action (TR-FRET). In kind it is biochemical. To be noted: one hour at room temperature, read-out: IC50 (KRAS G12C/SOS/c-Raf complex formation inhibition). On the procedure: Evaluation of KRAS G12C/SOS/c-Raf Complex Formation Inhibitory Action
Human Recombinant KRAS G12C, SOS, and c-Raf protein were used, and with respect to the complex formation of these proteins, an inhibitory action of the test compound was examined through a time-resolved fluorescence resonance energy transfer (TR-FRET) method.
Biotinylated AviTag-KRAS G12C (amino acid region 1-185, GDP) (2.5 μL; 400 nM) dissolved in assay buffer (50 mM HEPES, 150 mM NaCl, 5 mM MgCl2, 0.05% Tween 20, pH 7.4) and test compound were added in a volume of 2.5 μL from 4,000 nM to 4 nM were added to 384 well plate (Corning Inc). Son of Sevenless (SOS) (amino acid region 564-1049, 2.5 μL; 1.3 μM) and c-Raf (amino acid region 51-131) GST containing GTP (Sigma-Aldrich Co. LLC) (2.5 μL; 130 nM and 4 μM of each) were added to the above mixture, and the resultant was left to stand for one hour at room temperature. Thereafter, a mixed solution (10 μL) of LANCE Ulight-anti-GST (120 nM, PerkinElmer. Co., Ltd) and LANCE Eu-W1024 labeled Streptoavidin (100 ng/mL, PerkinElmer. Co., Ltd) was added, and a fluorescence intensity on the condition of wavelength of 620 nm and 665 nm was measured by using EnVision 2103 Multilabel Reader (PerkinElmer Co., Ltd.) under the condition of excitation wavelength of 337 nm. […] In Tables, Ex represents Example numbers described later. In addition, in Tables, Compound C represents a test compound of Example I-59 disclosed in Pamphlet of International Publication No. WO 2016/164675, and the structures of Reference Example 1 and Reference Example 2 are indicated in Table 168 described below (the same shall apply hereinafter).
(Time-resolved FRET reads energy transfer from a long-lived donor to a nearby acceptor.)

For experiment [3], the system named is NCI-H1373 cells. The experiment in a line: Anchorage-independent cell proliferation inhibitory action, NCI-H1373 spheroid three-dimensional culture. In kind it is cell-based, Human. To be noted: Homo sapiens, NCI-H1373, 144 h, NCI-H1373 spheroid, six days, CellTiter Glo; read-out: IC50 (anchorage-independent cell proliferation inhibition). On the procedure: Evaluation of Anchorage-Independent Cell Proliferation Inhibitory Action with Respect to Human KRAS G12C Mutation Positive Non-Small Cell Lung Cancer Strain NCI-H1373
An anchorage-independent cell proliferation inhibitory action by the test compound was evaluated by a spheroid three-dimensional culture.
NCI-H1373 cells were seeded in cell low adsorption U bottom 384 well plates (Prime Surface: Sumitomo Bakelite Co., Ltd.) at 36 μL/well each so as to be 5×10^2 cell per well. The cell culture was performed under the same conditions as Test example 2.
The next day, the test compounds (six points in a range of final concentration 1,000 nM to 0.3 nM) and DMSO which is a solvent of the test compound as a negative control were diluted 100-fold with fresh medium, 4 μL each was added to each well. After culturing at 37° C. in the presence of 5% CO2 for six days, 20 μL of CellTiter Glo or to CellTiter Glo 2.0 (Promega Corporation) was added to each well. After stirring for one hour at room temperature using a plate mixer (FINEPCR), an emission signal was measured with ARVO X3 (PerkinElmer Co., Ltd.).
When a signal value in a DMSO treatment was set as 0% inhibition, and a signal value in cell-free medium only was set as 100% inhibition, a value of 50% inhibition (IC50) was calculated through Sigmoid-Emax model nonlinear regression analysis.
A general note: In ATP-based viability assays light output follows the ATP content of the culture.

In the case of `C=CC(=O)N1CC2(CCN(c3nc(OC4CCN(CCC(F)(F)F)CC4)nc4c(OCC(F)(F)F)c(-c5c(C)ccc6[nH]ncc56)c(C=C)cc34)CC2)C1` [Example 60], the results for the IC50 in experiment [1], in experiment [2] and in experiment [3] were 8.8 nM, 98 nM and 35 nM, respectively.

As for `C=CC(=O)N1CC2(CCN(c3nc(OC4CCN(C)CC4)nc4c(OCc5ccccc5)c(-c5c(C)ccc6[nH]ncc56)c(C=C)cc34)CC2)C1` [Example 61], the IC50 in experiment [1] was found to be 8.8 nM; in experiment [2], 56 nM; in experiment [3], 17 nM.

Take `C=CC(=O)N1CC2(CCN(c3nc(OC4CCN(CCOC)CC4)nc4c(OCC(F)(F)F)c(-c5c(C)ccc6cn[nH]c56)c(C=C)cc34)CC2)C1` [Example 62]: the IC50 is 8.8 nM in experiment [1], 37 nM in experiment [2] and 14 nM in experiment [3].

As for `C=CC(=O)N1CC2(CCN(c3nc(OC4CCN(C)CC4)nc4c(OCC(C)(F)F)c(-c5c(C)ccc6[nH]ncc56)c(C=C)cc34)CC2)C1` [Example 63], the IC50 in experiment [1] worked out at 6.6 nM; in experiment [2], 53 nM; in experiment [3] it was 14 nM.

Turning to `C=CC(=O)N1CC2(CCN(c3nc(O[C@H]4CC[C@@H](N(C)C)CC4)nc4c(OCC(F)(F)F)c(-c5c(C)ccc6[nH]ncc56)c(C=C)cc34)CC2)C1` [Example 64], the IC50 turned out to be 9.1 nM in experiment [1], 32 nM in experiment [2] and 15 nM in experiment [3].

In the case of `C=CC(=O)N1CC2(CCN(c3nc(OC4CCN(C)CC4)nc4c(OCc5ccc(OC(F)F)cc5)c(-c5c(C)ccc6[nH]ncc56)c(C=C)cc34)CC2)C1` [Example 66], the figures for the IC50 in experiment [1], in experiment [2] and in experiment [3] were 9.7 nM, 47 nM and 39 nM, respectively.

Consider `C=CC(=O)N1CC2(CCN(c3nc(OC4CCN(CCN(CC)CC)CC4)nc4c(OCC(F)(F)F)c(-c5c(C)ccc6[nH]ncc56)c(C=C)cc34)CC2)C1` [Example 67], for which the values for the IC50 in experiment [1], in experiment [2] and in experiment [3] were 11 nM, 43 nM and 18 nM, respectively.

As for `C=CC(=O)N1CC2(CCN(c3nc(NC4CCN(C)CC4)nc4c(OCC(F)(F)F)c(-c5c(C)ccc6[nH]ncc56)c(C=C)cc34)CC2)C1` [Example 68], the IC50 turned out to be 12 nM in experiment [1], 45 nM in experiment [2] and 16 nM in experiment [3].

Consider `C=CC(=O)N1CC2(CCN(c3nc(OC4CCCN(C)CC4)nc4c(OCC(F)(F)F)c(-c5c(C)ccc6[nH]ncc56)c(C=C)cc34)CC2)C1` (stereo not drawn) [Example 69], for which the IC50 in experiment [1] came to 12 nM; in experiment [2] it was 50 nM; in experiment [3], 17 nM.

On to `C=CC(=O)N1CC2(CCN(c3nc(OC4CCN(C(=O)N(C)C)CC4)nc4c(OCC(F)(F)F)c(-c5c(C)ccc6[nH]ncc56)c(C=C)cc34)CC2)C1` [Example 70], for which the IC50 in experiment [1] is 18 nM; in experiment [2], 79 nM; in experiment [3], 71 nM.

Regarding `C=CC(=O)N1CC2(CCN(c3nc(OCCCN(C)C)nc4c(OCC(F)(F)F)c(-c5c(C)ccc6[nH]ncc56)c(C=C)cc34)CC2)C1` [Example 71], the IC50 in experiment [1] was 14 nM; in experiment [2], 40 nM; in experiment [3] it was 10 nM.

Take `C=CC(=O)N1CC2(CCN(c3nc(OC4CCN(C5CCN(C)CC5)CC4)nc4c(OCC(F)(F)F)c(-c5c(C)ccc6[nH]ncc56)c(C=C)cc34)CC2)C1` [Example 72]: the IC50 stood at 14 nM in experiment [1], 41 nM in experiment [2] and 24 nM in experiment [3].

Regarding `C=CC(=O)N1CC2(CCN(c3nc(OC4CCN(CCN5CCCC5)CC4)nc4c(OCC(F)(F)F)c(-c5c(C)ccc6[nH]ncc56)c(C=C)cc34)CC2)C1` [Example 73], the IC50 in experiment [1] came to 15 nM; in experiment [2] it was 44 nM; in experiment [3], 28 nM.

Regarding `C=CC(=O)N1CC2(CCN(c3nc(OC4CCN(C)CC4)nc4c(OCC(C)C)c(-c5c(C)ccc6[nH]ncc56)c(C=C)cc34)CC2)C1` [Example 74], the IC50 was found to be 15 nM in experiment [1], 50 nM in experiment [2] and 21 nM in experiment [3].

Turning to `C=CC(=O)N1CC2(CCN(c3nc(OC4CCS(=O)(=O)CC4)nc4c(OCC(F)(F)F)c(-c5c(C)ccc6[nH]ncc56)c(C=C)cc34)CC2)C1` [Example 75], the IC50 in experiment [1] was found to be 15 nM; in experiment [2] it was 51 nM; in experiment [3] it was 43 nM.

`C=CC(=O)N1CC2(CCN(c3nc(N4CCCN(C)CC4)nc4c(OCC(F)(F)F)c(-c5c(C)ccc6[nH]ncc56)c(C=C)cc34)CC2)C1` [Example 76]: the results for the IC50 in experiment [1], in experiment [2] and in experiment [3] were 15 nM, 43 nM and 25 nM, respectively.

As for `C=CC(=O)N1CC2(CCN(c3nc(OC4CCN(CCOC)CC4)nc4c(OCC(F)(F)F)c(-c5c(C)ccc6[nH]nc(Cl)c56)c(C=C)cc34)CC2)C1` [Example 77], the results for the IC50 in experiment [1], in experiment [2] and in experiment [3] were 16 nM, 56 nM and 32 nM, respectively.

As for `C=CC(=O)N1CC2(CCN(c3nc(OC4CCN(CCOC)CC4)nc4c(OCC(F)(F)F)c(-c5c(C)cc(F)c6[nH]ncc56)c(C=C)cc34)CC2)C1` [Example 78], the IC50 in experiment [1] was 16 nM; in experiment [2], 47 nM; in experiment [3], 24 nM.
